One data set concerns P-glycoprotein. Description: Steady-state accumulation of [3H]Taxol. In kind it is cell-based. The note with it: Taxol-resistant murine cell line; data not shown.
For data set [1] the following is noted: literature [13], [16]; discodermolide value predicted; cited from earlier work.
The subject of data set [2] is A549-T12 cells. In kind it is cell-based, human. The note with it: 48 h; for Microtubule cytoskeleton / ability to substitute for Taxol: concentrations as in FIG. 4. As for the experimental part:
A549-T12 cells were grown on cover slips and treated with the different compounds for 48 h. Cells were then permeabilized, fixed, and incubated with an α-tubulin antibody, as described below.
A549-T12 cells, which were grown to subconfluency on glass cover slips in the absence of drug or in the presence of different drugs at varying concentrations (FIG. 4), were prepared for immunofluorescence microscopy as previously described, with the following modifications: (a) nonspecific binding was blocked using 10% normal goat serum in PBS for 30 min at 37° C.; (b) cells were incubated with a monoclonal antibody to α-tubulin (Sigma; 1:100 dilution; 5% normal goat serum in PBS), followed by a Cy3-conjugated anti-mouse IgG secondary antibody (Amersham, Arlington Heights, Ill.; 1:1000 dilution); and (c) slides were analyzed using the Zeiss Axioskop microscope (rhodamine filter) at 63× magnification.

The test system of another data set is J7-T3-1.6. Description: cells. In kind it is cell-based, mouse. The note with it: for IC50: Mus musculus, J7-T3-1.6, 72 h, mean ± SE, read-out: IC50 (drug concentration that inhibits cell division by 50%); for Fold resistance (ratio of IC50 J7-T3-1.6 to J774.2): after 72 h. The procedure:
(§1) The drug-sensitive mouse macrophage-like cell line, J774.2, and its Taxol-resistant cell line, J7-T3-1.6, were maintained as previously described. […] Drug-sensitive and vinblastine-resistant human ovarian carcinoma cell lines, SKOV3 and SKVLB, were obtained from Dr. V. Ling, and were maintained as previously described. Both J7-T3-1.6 and SKVLB cells overexpress P-glycoprotein. SKVLB cells were grown in the presence of 1 μM vinblastine. The Taxol-resistant human non-small-cell lung carcinoma cell line, A549-T12, was derived from the drug-sensitive A549 cell line; both cell lines were maintained as previously described.
(§2) For the A549 cell lines, cells were seeded at a density of 1×10^4 cells/mL (A549) or 3×10^4 cells/mL (A549-T12), in triplicate, 6-well plates, and allowed to attach for 24 h. […] The SKOV3 and SKVLB cell lines were assayed in a similar manner. Cells were seeded in triplicate, at a density of 6×10^3 cells/mL (SKOV3) or 12×10^3 cells/mL (SKVLB), in 6-well plates, and incubated with a drug for 6 days. […] J774.2 and J7-T3-1.6 cells were plated at a density of 2×10^4 cells/well, in 96-well plates, and allowed to attach overnight. Serial dilutions of each drug were performed, and the cells were incubated for 72 h. The IC50 was determined using the CellTiter 96™ AQueous nonradioactive cell proliferation assay (Promega, Madison, Wis.), which correlates with the number of live cells. Different methods for determining IC50 values were used, depending on the most accurate method for each particular set of cell lines.

A further data set relates to J774.2. The data set is described as follows: cells. The class given is cell-based, mouse. The note with it: Mus musculus; J774.2, 72 h, mean ± SE; read-out: IC50 (drug concentration that inhibits cell division by 50%). The procedure:
as §1, §2

The subject of data set [3] is A549-T12 cells. In kind it is cell-based, human. The note with it: for Reversal of the G2-M-phase block induced by Taxol removal: 48 h without Taxol, then 48 h with drug, discodermolide 0.001-24.0 nM, data not shown. The procedure:
Cells were incubated with the different agents for 48 h, fixed, stained with propidium iodide, and analyzed by flow cytometry, as described below.
For the drug substitution experiments, A549-T12 cells were seeded at a density of 3×10^4 cells/mL in 75-cm^2 flasks, and treated with various drugs at the indicated concentrations (FIG. 5). After 48 h, both adherent and nonadherent cells were harvested, fixed in 70% ethanol for at least 20 min, permeabilized with 0.1% Triton X-100 in PBS for 3 min, and stained for 30 min at 37° C. with 10 μg/mL of propidium iodide (Sigma) in a PBS solution containing 1 μg/mL of RNase A (Boehringer Mannheim, Indianapolis, Ind.). Cell-cycle analysis was performed using the Becton Dickinson FACScan and the CellQuest program. […] The cells then were prepared as described above.

Data set [4] relates to A549-T12 cells. The data set is described as follows: Drug combination assay (colorimetric proliferation assay), Taxol titrated with test drug. The class given is cell-based, human. The note with it: 72 h. As for the experimental part:
For the drug combination assay, the cells were analyzed after 72 h using a cell proliferation assay, as described below. A: cytotoxicity curves of A549-T12 cells in the absence of Taxol or in the presence of Taxol (in various concentrations), in combination with a range of discodermolide concentrations; B-D: cytotoxicity curves of A549-T12 cells in the absence or presence of 2 nM Taxol, in combination with eleutherobin or the epothilones. —⬭—: no Taxol; ---⬬----: 2 nM Taxol.
For the drug combination assay, A549-T12 cells were seeded in triplicate, at a density of 4×10^4 cells/mL, in 96-well plates, in the absence of Taxol or in the presence of various concentrations of Taxol, in combination with serial dilutions of each test drug. After a 72-h incubation, the plates were assayed using the colorimetric proliferation assay. In order to sustain the growth of A549-T12 cells in the absence of Taxol, cells were seeded at the higher densities described above.

The subject of another data set is microtubules. The data set is described as follows: In vitro microtubule polymerization assay. The class given is biochemical. The note with it: in the absence of GTP.
The next data set relates to A549. Description: cells. In kind it is cell-based, human. The note with it: A549, 72 h, mean ± SE; for IC50: Homo sapiens, read-out: IC50 (drug concentration that inhibits cell division by 50%). The procedure: as §1, §2
A further data set deals with A549-T12. The data set is described as follows: cells. In kind it is cell-based, human. The note with it: for Fold resistance (ratio of IC50 A549-T12 to A549): 72 h; for IC50: Homo sapiens, A549-T12, 72 h, cells maintained in 2 nM Taxol, mean ± SE, read-out: IC50 (drug concentration that inhibits cell division by 50%). The procedure:
as §1, §2

The next data set has as its system SKOV3. Description: cells. The class given is cell-based, human. The note with it: SKOV3, 6 days, mean ± SE; for IC50: Homo sapiens, SK-OV-3, 144 h, read-out: IC50 (drug concentration that inhibits cell division by 50%). The procedure: as §1, §2
Another data set has as its system SKVLB. Description: cells. The class given is cell-based, human. The note with it: for IC50: Homo sapiens, Ovarian carcinoma cell, 144 h, SKVLB, 6 days, mean ± SE, read-out: IC50 (drug concentration that inhibits cell division by 50%); for Fold resistance (ratio of IC50, SKVLB and SKOV3): after 6 days. As for the experimental part:
as §1, §2

Data set [5] deals with A549-T12 cells. The data set is described as follows: Methylene blue growth assay. In kind it is cell-based, human. The note with it: 8 to 11 days. The procedure:
(§3) FIG. 2 illustrates that A549-T12 cells require Taxol for normal growth. A549 and A549-T12 cells were grown in the absence or presence of various concentrations of Taxol for 8 to 11 days. The cells were then stained with methylene blue, as described below.
(§4) Cells were seeded in 24-well plates at a density of 400 cells/well (A549) or 500 cells/well (A549-T12), and treated with different concentrations of Taxol. Following 8 to 11 days of growth, the medium was removed, and cells were stained with 0.5% methylene blue (Sigma) in 50% ethanol for 20 min, then rinsed with distilled water (FIG. 2).

The next data set deals with A549 cells. The data set is described as follows: Methylene blue growth assay. In kind it is cell-based, human. The note with it: 8 to 11 days. As for the experimental part: as §3, §4
The mark [6] stands for this setting: 48 h, 2 nM Taxol, discodermolide 2 or 6 nM, other drugs as in FIG. 5.

SMILES strings stand for the structures. Where two headings read alike, the source gives them in different places.

On to `C=C/C=C\[C@H](C)[C@H](OC(N)=O)[C@@H](C)[C@H](O)[C@@H](C)C/C(C)=C\[C@H](C)[C@@H](O)[C@@H](C)/C=C\[C@@H](O)C[C@@H]1OC(=O)[C@H](C)[C@@H](O)[C@H]1C` [Disco, discodermolide], for which the “Substrate for P-glycoprotein” value in the data set with P-glycoprotein is “not substrates for P-glycoprotein”. For the same compound, in data set [1], the “Solubility relative to Taxol” value is listed as 100 times more soluble than Taxol. Besides, the “Concentration at which microtubules became arranged in bundle-like formations at the periphery of the cell” value in the data set on A549-T12 cells [2] was at least 12 nM. Further, the “Microtubule cytoskeleton / ability to substitute for Taxol” value in the data set with A549-T12 cells [2] is “Neither discodermolide nor vinblastine was able to substitute for Taxol”. The IC50 with J7-T3-1.6 worked out at 1050 nM; in the data set with J774.2 it was 36 ± 5.5 nM; in the data set on A549, 8.1 ± 0.14 nM; in the data set on A549-T12, 6.5 ± 2.4 nM; with SKOV3, 9.7 ± 0.3 nM; in the data set with SKVLB it was 575 ± 233 nM. Moreover, the “Fold resistance (ratio of IC50 J7-T3-1.6 to J774.2)” value in the data set with J7-T3-1.6 is on record as 29.2 fold; with J7-T3-1.6 (listed as discodermolide) it was “low resistance”. The Cell-cycle profile result is reported as “did not prevent the development of a G2-M-phase block” in the data set on A549-T12 cells [3] (setting [6]), “G2-M-phase block” with A549-T12 cells [3] (discodermolide 0.001-1.0 nM) and “substantial increase in the hypodiploid population” with A549-T12 cells [3] (discodermolide 12-24 nM). Moreover, the “Reversal of the G2-M-phase block induced by Taxol removal” value with A549-T12 cells [3] was “irreversible”. Besides, the “Taxol concentration at which the potency of discodermolide was maximal” value in the data set with A549-T12 cells [4] (Taxol titrated with a range of discodermolide concentrations) was found to be 2 nM. Moreover, the “Loss of sensitivity of A549-T12 cells to the drug in the absence of 2 nM Taxol” value in the data set on A549-T12 cells [4] (absence vs presence of 2 nM Taxol) amounted to 20 fold. For the same compound, in the data set on microtubules, the Assembly of microtubules result was “enhanced the assembly of stable microtubules”. Further, the “IC50 (drug concentration that inhibits cell division by 50%)” value in the data set on A549 is “comparable activities”; in the data set with SKOV3, “decreased but similar responses”. Also, the “Fold resistance (ratio of IC50 A549-T12 to A549)” value in the data set with A549-T12 was 0.8 fold; in the data set on A549-T12 (listed as discodermolide), “no cross-resistance”. Moreover, the “Fold resistance (ratio of IC50, SKVLB and SKOV3)” value in the data set on SKVLB is listed as 59.3 fold; in the data set with SKVLB (listed as discodermolide), “low-level cross-resistance”.
For `CC(=O)O[C@H]1C(=O)[C@@]2(C)[C@H]([C@H](OC(=O)c3ccccc3)[C@]3(O)C[C@H](OC(=O)[C@H](O)[C@@H](NC(=O)c4ccccc4)c4ccccc4)C(C)=C1C3(C)C)[C@]1(OC(C)=O)CO[C@@H]1C[C@@H]2O` [Taxol, paclitaxel], the values for the Cell growth entry with A549-T12 cells [5] (6 nM Taxol), in the data set with A549 cells (6 nM Taxol) and in the data set with A549 cells (subnanomolar concentrations of Taxol) were “grew normally”, “cytotoxic” and “unaffected”, respectively. Besides, the “Taxol level required by the cell line for normal growth” value in the data set on A549-T12 cells [5] fell in the range of 2 to 6 nM. Moreover, the “Microtubule cytoskeleton / ability to substitute for Taxol” value in the data set with A549-T12 cells [2] is given as “normal microtubule cytoskeleton”. The IC50 is 18000 nM with J7-T3-1.6; 67 ± 7 nM in the data set with J774.2; 2 ± 0.14 nM in the data set on A549; 18.7 ± 0.9 nM in the data set with A549-T12; 2 ± 0.1 nM in the data set with SKOV3; 13300 nM in the data set with SKVLB. Further, the “Fold resistance (ratio of IC50 J7-T3-1.6 to J774.2)” value in the data set with J7-T3-1.6 amounted to 268.7 fold. In the data set with A549-T12 cells [3] (setting [6]), the Cell-cycle profile result is on record as “normal cell-cycle profile”. Also, the “Reversal of the G2-M-phase block induced by Taxol removal” value in the data set with A549-T12 cells [3] is reported as “return of a normal cell-cycle profile”. In addition, the Assembly of microtubules entry in the data set on microtubules is recorded as “enhanced the assembly of stable microtubules”. The “IC50 (drug concentration that inhibits cell division by 50%)” value in the data set on SKOV3 is “decreased but similar responses”. Further, the “Fold resistance (ratio of IC50, SKVLB and SKOV3)” value with SKVLB is given as 6,666.5 fold.

The values above are taken from patent US6541509B2 (priority 2000, dated 2003).
